Where “and” joins values, the source holds several entries; their conditions need not be identical. Identical values can stand only once. Inconclusive results and toxic doses are left out. Rule as the data show it: active = T/C of 150% or more; inactive = T/C below 125%.
Tested on: L1210 leukemia ip in BDF1 mice, survival T/C
Assay: NCI In Vivo Anticancer Drug Screen. Data for tumor model L1210 Leukemia (intraperitoneal) in B6D2F1 (BDF1) mice
Details: endpoint: mean survival time, higher = longer survival
Method in brief: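 Value reflects the ratio of survival in compound-treated mice to survival in vehicle-treated controls, with both groups carrying the same transplanted tumor.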

[1] = dose: 100.0 mg/kg/injection, schedule: Q04DX003 (ip), vehicle: Klucel (hydroxypropylcellulose) (HPC)
[2] = dose: 200.0 mg/kg/injection, schedule: Q04DX003 (ip), vehicle: Klucel (hydroxypropylcellulose) (HPC)
[3] = dose: 400.0 mg/kg/injection, schedule: Q04DX003 (ip), vehicle: Klucel (hydroxypropylcellulose) (HPC)
[4] = dose: 100.0 mg/kg/injection, schedule: Q01DX001 (ip), vehicle: saline with Tween-80
[5] = dose: 200.0 mg/kg/injection, schedule: Q01DX001 (ip), vehicle: saline with Tween-80
[6] = dose: 400.0 mg/kg/injection, schedule: Q01DX001 (ip), vehicle: saline with Tween-80
[7] = dose: 100.0 mg/kg/injection, schedule: Q04DX003 (ip), vehicle: saline with Tween-80
[8] = dose: 200.0 mg/kg/injection, schedule: Q04DX003 (ip), vehicle: saline with Tween-80
[9] = dose: 100.0 mg/kg/injection, schedule: Q04DX003 (ip), vehicle: saline
[10] = dose: 200.0 mg/kg/injection, schedule: Q04DX003 (ip), vehicle: saline
[11] = dose: 100.0 mg/kg/injection, schedule: Q01DX009 (ip), vehicle: saline with Tween-80
[12] = dose: 200.0 mg/kg/injection, schedule: Q01DX009 (ip), vehicle: saline with Tween-80
[13] = dose: 400.0 mg/kg/injection, schedule: Q01DX009 (ip), vehicle: saline with Tween-80
[14] = dose: 400.0 mg/kg/injection, schedule: Q04DX003 (ip), vehicle: saline with Tween-80
[15] = dose: 100.0 mg/kg/injection, schedule: Q04DX002 (ip), vehicle: saline with Tween-80
[16] = dose: 200.0 mg/kg/injection, schedule: Q04DX002 (ip), vehicle: saline with Tween-80
[17] = dose: 400.0 mg/kg/injection, schedule: Q04DX002 (ip), vehicle: saline with Tween-80

Measured: T/C

O=C(Nc1cc([N+](=O)[O-])ccc1F)N(Cc1ccccc1)c1ccccc1
inactive: [1] 97 % of control | [2] 92 % of control | [3] 87 % of control

CCCCCCCCCCCCOC(=O)NCCCl
inactive: [4] 103 % of control | [5] 102 % of control | [6] 103 % of control

O=C(OC1(c2ccccc2)OC(=O)c2ccccc21)c1ccccc1C(=O)c1ccccc1 (stereo not drawn)
inactive: [7] 92 % of control | [8] 91 % of control

CC(C)C(C(=O)O)N1C(=O)C2C3CCC(O3)C2C1=O (stereo not drawn)
inactive: [9] 98 % of control and 102 % of control | [10] 98 % of control and 89 % of control | dose: 400.0 mg/kg/injection, schedule: Q04DX003 (ip), vehicle: saline 98 % of control and 103 % of control

COCn1cnc([N+](=O)[O-])c1Br
inactive: dose: 100.0 mg/kg/injection, schedule: Q01DX001 (ip), vehicle: acetone 101 % of control | [11] 96 % of control | dose: 200.0 mg/kg/injection, schedule: Q01DX001 (ip), vehicle: acetone 90 % of control | [12] 93 % of control | dose: 400.0 mg/kg/injection, schedule: Q01DX001 (ip), vehicle: acetone 100 % of control | [13] 86 % of control

COc1cc(N(CCCl)CCCl)c(OC)cc1C=Nc1ccccc1C(=O)O
inactive: dose: 2.6 mg/kg/injection, schedule: Q01DX009 (ip), vehicle: carboxymethylcellulose (CMC) 108 % of control | dose: 4.4 mg/kg/injection, schedule: Q01DX009 (ip), vehicle: carboxymethylcellulose (CMC) 116 % of control | dose: 5.5 mg/kg/injection, schedule: Q01DX001 (ip), vehicle: Klucel (hydroxypropylcellulose) (HPC) 109 % of control | dose: 6.6 mg/kg/injection, schedule: Q01DX009 (ip), vehicle: carboxymethylcellulose (CMC) 123 % of control | dose: 10.0 mg/kg/injection, schedule: Q01DX009 (ip), vehicle: carboxymethylcellulose (CMC) 123 % of control | dose: 11.0 mg/kg/injection, schedule: Q01DX001 (ip), vehicle: Klucel (hydroxypropylcellulose) (HPC) 111 % of control | dose: 19.0 mg/kg/injection, schedule: Q01DX001 (ip), vehicle: carboxymethylcellulose (CMC) 117 % of control | dose: 22.0 mg/kg/injection, schedule: Q01DX001 (ip), vehicle: Klucel (hydroxypropylcellulose) (HPC) 117 % of control | dose: 29.0 mg/kg/injection, schedule: Q01DX001 (ip), vehicle: carboxymethylcellulose (CMC) 118 % of control

ClCc1ccc2ccccc2n1
inactive: dose: 50.0 mg/kg/injection, schedule: Q04DX003 (ip), vehicle: saline with Tween-80 104 % of control | [7] 102 % of control | [8] 93 % of control

O=c1[nH]c2ccc(Cl)cc2c2nc3ccccc3n12
inactive: dose: 50.0 mg/kg/injection, schedule: Q01DX009 (ip), vehicle: Klucel (hydroxypropylcellulose) (HPC) 107 % of control | dose: 100.0 mg/kg/injection, schedule: Q01DX009 (ip), vehicle: Klucel (hydroxypropylcellulose) (HPC) 101 % of control | dose: 200.0 mg/kg/injection, schedule: Q01DX009 (ip), vehicle: Klucel (hydroxypropylcellulose) (HPC) 92 % of control

CCOC(=O)CCN(C(=S)Nc1ccccc1)C1CCCCC1
inactive: dose: 100.0 mg/kg/injection, schedule: Q01DX Z (ip), vehicle: methylcellulose (MC) 94 % of control | dose: 200.0 mg/kg/injection, schedule: Q01DX Z (ip), vehicle: methylcellulose (MC) 92 % of control

CCCCNC(=O)/C=C/C(=O)NCCCC
inactive: [7] 100 % of control | [8] 100 % of control | [14] 100 % of control

COc1ccc(/C=C/C(=O)c2ccccc2)cc1
inactive: [11] 93 % of control and 101 % of control | [7] 93 % of control | [12] 95 % of control and 96 % of control | [8] 96 % of control | [13] 111 % of control and 91 % of control | [14] 104 % of control

BrC(Br)(c1ccccc1)C1OCCO1
inactive: dose: 50.0 mg/kg/injection, schedule: Q01DX009 (ip), vehicle: saline with Tween-80 100 % of control | [11] 106 % of control | [12] 93 % of control

CCOC(=O)Cc1cc(=O)[nH]n(-c2ccccc2)c1=O
inactive: dose: 100.0 mg/kg/injection, schedule: Q04DX002 (ip), vehicle: gum acacia 100 % of control | dose: 200.0 mg/kg/injection, schedule: Q04DX002 (ip), vehicle: gum acacia 89 % of control | dose: 400.0 mg/kg/injection, schedule: Q04DX002 (ip), vehicle: gum acacia 96 % of control

CCOC(=O)CCC(NC(=O)c1ccc(I)cc1)C(=O)OCC (stereo not drawn)
inactive: [1] 94 % of control | [2] 96 % of control | [3] 102 % of control

C[N+](C)(C)CCCC[N+](C)(C)C
inactive: dose: 50.0 mg/kg/injection, schedule: Q01DX009 (ip), vehicle: saline 110 % of control | dose: 100.0 mg/kg/injection, schedule: Q01DX009 (ip), vehicle: saline 100 % of control and 106 % of control | [9] 102 % of control | dose: 200.0 mg/kg/injection, schedule: Q01DX009 (ip), vehicle: saline 98 % of control and 111 % of control | [10] 100 % of control

CCCCCCCCN(CCCCCCCC)NC(C)=O
inactive: dose: 50.0 mg/kg/injection, schedule: Q01DX001 (ip), vehicle: other 96 % of control | dose: 100.0 mg/kg/injection, schedule: Q01DX001 (ip), vehicle: other 104 % of control | dose: 200.0 mg/kg/injection, schedule: Q01DX001 (ip), vehicle: other 96 % of control | dose: 400.0 mg/kg/injection, schedule: Q01DX001 (ip), vehicle: other 93 % of control

N#CC1=C(C#N)C(=O)C(c2ccccc2)=C(c2ccccc2)C1=O
inactive: dose: 5.0 mg/kg/injection, schedule: Q01DX001 (ip), vehicle: saline 97 % of control | dose: 10.0 mg/kg/injection, schedule: Q01DX001 (ip), vehicle: saline 97 % of control | dose: 20.0 mg/kg/injection, schedule: Q01DX001 (ip), vehicle: saline 101 % of control

Cc1ccc(C(=O)/C=C\c2ccccc2)cc1
inactive: [11] 110 % of control | [7] 103 % of control | [12] 97 % of control | [8] 98 % of control | [13] 97 % of control | [14] 92 % of control

O=C(Nc1ccc(Cl)cc1)Oc1ccc(Cl)cc1Cc1ccccc1
inactive: [15] 93 % of control | [16] 118 % of control | [17] 89 % of control

CN1N=C(c2ccccc2)CC1=O
inactive: dose: 100.0 mg/kg/injection, schedule: Q01DX001 (ip), vehicle: Klucel (hydroxypropylcellulose) (HPC) 103 % of control | dose: 200.0 mg/kg/injection, schedule: Q01DX001 (ip), vehicle: Klucel (hydroxypropylcellulose) (HPC) 108 % of control | dose: 400.0 mg/kg/injection, schedule: Q01DX001 (ip), vehicle: Klucel (hydroxypropylcellulose) (HPC) 97 % of control

CC(=O)Oc1cccc(OC(=O)Nc2cccc(Cl)c2C)c1
inactive: [4] 93 % of control | [11] 104 % of control and 107 % of control | [15] 94 % of control and 104 % of control | [7] 88 % of control | [5] 100 % of control | [12] 96 % of control and 90 % of control | [16] 94 % of control and 101 % of control | [8] 86 % of control | [6] 93 % of control | [13] 93 % of control and 100 % of control | [17] 97 % of control and 104 % of control | [14] 89 % of control

Source: PubChem BioAssay AID248 (DTP/NCI, 2004)
